Holding throughout (type): cell-based, mouse
The test system of experiment [1] is FGFR3^K650M transfected NIH3T3 cells. As to the kind of experiment: [3H]-thymidine incorporation in NIH3T3 cells expressing FGFR3^K650M. Conditions: A31 2 mM. The protocol: NIH-3T3 clones stably expressing FGFR3^+/+ (WT) and FGFR3^Y373C, FGFR3K650M (human constructs) were used. The stable clones were selected with G418. NIH-3T3 clones were incubated for 8 h in 10% newborn calf serum DMEM supplemented or not with A31 (2 mM). [3H] thymidine was added at a concentration of […] and incubated for 16 hours. The cells were harvested on glass fiber filter paper and assayed for radioactivity by liquid scintillation counting. The inventors used Top Count Microplates scintillation counter (Perkin Elmer).
To determine whether A31 modulates the mitogenic activity of activated FGFR3, the inventors measured [3H]-thymidine incorporation in FGFR3^Y373C and FGFR3^K650M transfected NIH3T3 cells. The mitogenic activity was increased in cells expressing FGFR3 mutations compared to WT (FGFR3^Y373C, 9927±2921 cpm; FGFR3^K650M, 15048±5251 cpm; WT, 7499±1667 cpm; p<10^−5 versus WT).

In experiment [2] the test system is Fgfr3^Y367C/+ femurs. As to the kind of experiment: Ex vivo culture of E16.5 embryonic femur explants, bone length. How it is done: (§1) Six sets of ex vivo experiments were performed. Femur embryos at day E16.5 from WT (n=6) and Fgfr3^Y367C/+ (n=6) mice were used and incubated for 5 days in DMEM medium with antibiotics and 0.2% BSA (Sigma) supplemented with A31 or PD173074 (as control) at a concentration of 2 mM. Right femur was cultured in supplemented medium and compared with the left one cultured in control medium. Rib cage from E16.5 WT and Fgfr3^Y367C/+ mice embryos were isolated and stripped of all soft tissues. Primary chondrocytes were obtained from rib cages. The ribs were incubated in a pronase solution (Roche; 2 mg/ml) followed by a digestion in Collagenase A (Roche; 3 mg/ml) at 37° C. Isolated chondrocytes were plated out at a density of 2.105 cells in 6-well plates containing DMEM supplemented with 10% FCS and antibiotics, and were allowed to reach subconfluency. Cultures were supplemented with A31 or PD173074 (as control) at a concentration of 2 mM. Cells were treated with A31 (2 mM) PD173074 (as control) in serum-free DMEM supplemented with 0.2% BSA and harvested after 24 h. To establish the effect of the inhibitors, the right femur was cultured in supplemented medium and compared with the left one cultured in control medium The bone length was measured at the beginning (before treatment) and at the end of time course. Each experiment was repeated at least three times. The genotype of WT, Fgfr3^Y367C/+ and Fgfr3^−/− mice were determined by PCR of tail DNA as previously described (Pannier et al., Biochim Biophys Acta, 1792: 140-147, 2009). All experimental procedures and protocols were approved by the Animal Care and Use Committee.
Fgfr3^Y367C/+ mice display reduced length of long bones, broad femurs, a narrow trunk, short ribs and a slightly dome-shaped skull, closely resembling achondroplasia (FIGS. 3A and B). The inventors analyzed the effects of A31 on endochondral ossification in Fgfr3^Y367C/+ mice by using an ex vivo culture system for embryonic day 16.5 (E16.5) limb explants. […] After 5 days of culture, the increase in length of the treated mutant femurs was 2.6 times more than for that of WT.
Thus, embryonic femur explants were co-incubated with 150 nM of PD173074 for 5 days.
Embryonic femur explants were co-incubated 100 nM (10^−7M) or 1 μM (10^−6M) of BGJ-398 for 6 days.

Experiment [3] relates to Fgfr3^Y367C/+ growth plate. As to the kind of experiment: Histology of cultured femur growth plate (HES staining, type X collagen in situ hybridization). The protocol: Limb explants were fixed after culture in 4% paraformaldehyde at 4° C., and placed in a staining solution for 45-60 minutes (0.05% Alizarin Red, 0.015% Alcian Blue, 5% acetic acid in 70% ethanol) or embedded in paraffin. Serial […] were stained with Hematoxylin-Eosin using standard protocols for histological analysis or were subjected to in situ hybridization or immunohistochemical staining. In situ hybridization using [S35]-UTP labeled antisense ribopropes for collagen X was carried out as previously described (Delezoide et al., Hum Mol Genet, 6, 1899-1906, 1997). Sections were counterstained with Hematoxylin. For immunohistochemistry, sections were stained with antibodies specific to FGFR3 (1:250 dilution; Sigma), anti PCNA (1:1000 dilution; Abcam), anti-KI67 (1:300; Abcam), anti-cyclin D1 (1:80 dilution; Santa Cruz) and anti-p57 (1:100 dilution; Santa Cruz) using the Dako Envision kit. Images were captured with an Olympus PD70-IX2-UCB microscope. […] The inventors evaluated the impact of A31 on the growth plate (FIG. 4A). […] Histological examinations using HES staining (FIG. 10A) and type X collagen labeling (FIG. 10B) were also carried out.

Experiment [4] deals with cyclin D1. As to the kind of experiment: Cyclin D1 immunoblot in costal primary chondrocytes from E16.5 ribs. Conditions: A31-treated murine chondrocytes vs untreated. How it is done:
as §1, with “Isolated chondrocytes were plated out at a density of 2.105 cells in 6-well plates containing DMEM supplemented with 10% FCS and antibiotics, and were allowed to reach subconfluency. Cultures were supplemented with A31 or PD173074 (as control) at a concentration of 2 mM. Cells were treated with A31 (2 mM) PD173074 (as control) in serum-free DMEM supplemented with 0.2% BSA and harvested after 24 h.” left out, “Each experiment was repeated at least three times.” left out, “All experimental procedures and protocols were approved by the Animal Care and Use Committee.” left out
Immunoprecipitation were performed by incubating […] rabbit anti-FGFR3 (Sigma)/[…] protein with protein A-agarose (Roche). […] Bound proteins were detected by chemiluminescence (ECL, Amersham). The blots were rehybrididized with an antipan-actin antibody for quantification (Millipore). […]
On the technique in general: In western blotting, separated proteins are transferred to a membrane and probed.

Structures are written as SMILES.

As to `COc1cc(OC)cc(-c2cc3cnc(NCc4cn(CC5CCCN(C)C5)nn4)nc3nc2NC(=O)NC(C)(C)C)c1` (centres unmarked) [Compound A31], the “[3H]-thymidine incorporation (DNA synthesis)” value in experiment [1] was determined as 6281±2699 cpm. The “limb growth in Fgfr3^Y367C/+ femurs (in words)” value in experiment [2] (A31 2 mM, 5 days) was “fully restore limb growth”. For the same molecule, the “longitudinal bone growth (gain in femur length)” value in experiment [2] (A31 2 mM, 5 days of culture, Fgfr3^Y367C/+ femurs) is on record as 1880±558 μm. The “increase in length of treated mutant femurs relative to WT” value in experiment [2] (A31, after 5 days of culture) turned out to be 2.6 times. In addition, the “size of the hypertrophic zone of the growth plate” value in experiment [3] (A31, Fgfr3^Y367C/+ femur explants) is “marked expansion of the hypertrophic zone”. In experiment [3] (A31, Fgfr3^Y367C/+ growth plates), the “type X collagen expression (in situ hybridization)” value is “enhanced type X collagen expression”. Also, the chondrocyte morphology entry in experiment [3] (A31, data not shown) is “enlarged and more spherical”. Further, in experiment [4], the “cyclin D1 level (Western blot)” value is reported as “reduced level of cyclin D1”.

The values are drawn from patent US11357778B2, “Antagonist of the fibroblast growth factor receptor 3 (FGFR3) for use in the treatment or the prevention of skeletal disorders linked with abnormal activation of FGFR3” (INSTITUT NATIONAL DE LA SANTE ET DE LE RECHERCHE MEDICALE …, priority 2011, dated 2022).
